Results published in US10053431B2, “Tetrahydro-benzodiazepinones” (priority 2013, dated 2018).
pIC50: −log10 of the molar value. Structures can show the parent of a compound that is named as a salt. Where two headings read alike, the source gives them in different places.

Columns and labels:
BIR2 domain of XIAP = BIR2 domain of XIAP (Homo sapiens (Human), UniProt P98170, C202A/C213G); experiment: TR-FRET assay for BIR2 (inhibition of binding of XIAP BIR2 domain to SMAC-derived Peptide A)
BIR3 domain of XIAP = BIR3 domain of XIAP (Homo sapiens (Human), UniProt P98170); experiment: TR-FRET assay for BIR3 (inhibition of binding of XIAP BIR3 domain to SMAC-derived Peptide A); settings: 6x His-tagged BIR3 domain (aa 241-356 of XIAP) 10 nM, Peptide A 20 nM, TR-FRET
BIR3 domain of XIAP, sequence (P98170 241-356 with tags or gaps limits assumed): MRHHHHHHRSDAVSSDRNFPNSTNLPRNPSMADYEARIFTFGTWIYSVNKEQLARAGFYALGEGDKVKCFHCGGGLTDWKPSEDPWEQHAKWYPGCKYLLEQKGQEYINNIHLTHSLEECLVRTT

[1] = 6x His-tagged BIR2 domain (aa 124-240 of XIAP) 10 nM, Peptide A 20 nM, TR-FRET, read-out: IC50 BIR2

BIR2 domain of XIAP, sequence (P98170 124-240 with tags or gaps C202A/C213G limits assumed): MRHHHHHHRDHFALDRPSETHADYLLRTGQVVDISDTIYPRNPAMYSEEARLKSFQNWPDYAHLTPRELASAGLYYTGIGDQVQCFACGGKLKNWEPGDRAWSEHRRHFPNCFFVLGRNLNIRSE

SMILES	pIC50 (BIR3 domain of XIAP)	pIC50 (BIR2 domain of XIAP; [1])	pIC50 (BIR2 domain of XIAP; IC50 BIR2)
CCN[C@@H](CC)C(=O)NC1C(=O)N(Cc2c(OC)ccc3c(Br)cccc23)c2ccccc2N(c2ccccc2)C1=O (stereo partly drawn) [Example 134, (2S)-N-(1-((5-bromo-2-methoxynaphthalen-1-yl)methyl)-2,4-dioxo-5-phenyl-2,3,4,5-tetrahydro-1H-benzo[b][1,4]diazepin-3-yl)-2-(ethylamino)butanamide]	< 4.26	–	7.49
CC[C@H](N)C(=O)NC1C(=O)N(Cc2c(OC)ccc3c(Br)cccc23)c2ccccc2N(c2ccccc2)C1=O (stereo partly drawn) [Example 137, (2S)-2-amino-N-(1-((5-bromo-2-methoxynaphthalen-1-yl)methyl)-2,4-dioxo-5-phenyl-2,3,4,5-tetrahydro-1H-benzo[b][1,4]diazepin-3-yl)butanamide]	< 4.26	–	7.53
CC[C@H](NCCO)C(=O)NC1C(=O)N(Cc2c(OC)ccc3c(Br)cccc23)c2ccccc2N(c2ccccc2)C1=O (stereo partly drawn) [Example 138, (2S)-N-(1-((5-bromo-2-methoxynaphthalen-1-yl)methyl)-2,4-dioxo-5-phenyl-2,3,4,5-tetrahydro-1H-benzo[b][1,4]diazepin-3-yl)-2-(2-hydroxyethylamino)butanamide]	< 4.26	7.16	–
CN[C@@H](C)C(=O)N[C@H]1CN(C(=O)c2ccc(C#N)cc2)c2cc(C#N)ccc2N(Cc2c(OC)ccc3c(Br)cccc23)C1=O [Example 143, (S)-N-((S)-1-((5-bromo-2-methoxynaphthalen-1-yl)methyl)-7-cyano-5-(4-cyanobenzoyl)-2-oxo-2,3,4,5-tetrahydro-1H-benzo[b][1,4]diazepin-3-yl)-2-(methylamino)propanamide hydrochloride]	4.79	8.29	–
CCN[C@@H](C)C(=O)N[C@H]1CN(C(=O)CS(C)(=O)=O)c2ccccc2N(Cc2c(OC)ccc3cc(Br)ccc23)C1=O [Example 149, (S)-N-((S)-1-((6-bromo-2-methoxynaphthalen-1-yl)methyl)-5-(2-(methylsulfonyl)acetyl)-2-oxo-2,3,4,5-tetrahydro-1H-benzo[b][1,4]diazepin-3-yl)-2-(ethylamino)propanamide]	< 4.26	6.74	–

Second part, led by results:

pIC50 (BIR3 domain of XIAP)	pIC50 (BIR2 domain of XIAP; [1])	SMILES	pIC50 (BIR2 domain of XIAP; IC50 BIR2)
4.44	7.49	CN[C@@H](C)C(=O)N[C@H]1CN(C(=O)c2ccc(C#N)cc2)c2cc(Cl)ccc2N(Cc2c(OCC(F)(F)F)ccc3cc(Br)ccc23)C1=O [Example 135, (S)-N-((S)-1-((6-bromo-2-(2,2,2-trifluoroethoxy)naphthalen-1-yl)methyl)-7-chloro-5-(4-cyanobenzoyl)-2-oxo-2,3,4,5-tetrahydro-1H-benzo[b][1,4]diazepin-3-yl)-2-(methylamino)propanamide hydrochloride]	–
4.43	7.46	CN[C@@H](C)C(=O)N[C@H]1CN(C(=O)c2ccc(C#N)cc2)c2cc(Cl)ccc2N(Cc2c(OC(F)F)ccc3ccccc23)C1=O [Example 139, (S)-N-((S)-7-chloro-5-(4-cyanobenzoyl)-1-((2-(difluoromethoxy)naphthalen-1-yl)methyl)-2-oxo-2,3,4,5-tetrahydro-1H-benzo[b][1,4]diazepin-3-yl)-2-(methylamino)propanamide hydrochloride]	–
4.31	7.55	CN[C@@H](C)C(=O)N[C@H]1CN(C(=O)c2ccc(F)cc2)c2cc(C#N)ccc2N(Cc2c(OC(F)F)ccc3ccccc23)C1=O [Example 151, (S)-N-((S)-7-cyano-1-((2-(difluoromethoxy)naphthalen-1-yl)methyl)-5-(4-fluorobenzoyl)-2-oxo-2,3,4,5-tetrahydro-1H-benzo[b][1,4]diazepin-3-yl)-2-(methylamino)propanamide hydrochloride]	–
< 4.26	7.73	CCN[C@@H](CC)C(=O)N[C@H]1CN(C(=O)CS(C)(=O)=O)c2ccccc2N(Cc2c(OC)ccc3c(Br)cccc23)C1=O [Example 155, (S)-N-((S)-1-((5-bromo-2-methoxynaphthalen-1-yl)methyl)-5-(2-(methylsulfonyl)acetyl)-2-oxo-2,3,4,5-tetrahydro-1H-benzo[b][1,4]diazepin-3-yl)-2-(ethylamino)butanamide hydrochloride]	–
